The source of these data is PubChem BioAssay AID179 (DTP/NCI, 2004).

Active and inactive are the calls of the source.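 How the source made its calls: active means compounds giving half or more protection of infected cells from virus-caused growth loss, again on retest; inactive means the rest.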 Where a SMILES comes first, the peptide text is derived from it. The star is where a group is joined. Boc = CC(C)(C)OC(=O)*; OtBu = CC(C)(C)O*

This experiment deals with CEM cells HIV-1 protection, formazan growth assay. The experiment in a line: NCI AIDS Antiviral Assay. The conditions noted are these: for IC50: measured here: growth of uninfected CEM cells. In a few lines: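 Human CEM cells, uninfected and HIV-1-infected, exposed to five drug concentrations; growth measured by soluble formazan assay and scored as percent protection from infection, with protecting compounds retested.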

One may read the EC50 as the midpoint of the concentration-response curve. Usually IC50 stands for the concentration needed to halve the response being measured. Low values mean higher potency, high ones lower potency. As for `CN(C)CCCSc1c2ccccc2nc2cc(NCC(=O)Nc3ccccc3-c3ccccc3NC(=O)CNc3ccc4c(SCCCN(C)C)c5ccccc5nc4c3)ccc12`, the EC50 was more than 123 µM and the IC50 amounted to 58.9 µM. The matching figures for `O=C(C=Nc1ccccc1C(=O)[O-])c1ccco1.O=C(C=Nc1ccccc1C(=O)[O-])c1ccco1.[Ni+2]`: more than 1.91 µM and more than 1.91 µM. On to `CCOC(CN(C)C(=O)Nc1ccc(Cl)c(Cl)c1)OCC`, for which the EC50 is more than 200 µM and the IC50 came out at 14.8 µM.

For `CCCC(=O)c1ccc(=O)n(C)c1`, the EC50 was more than 1380 µM and the IC50 was found to be 1070 µM. The corresponding values for `Cc1c2n(c(=O)[nH]c1=O)C1OC(CO)C(O2)C1O` (stereo not drawn) are more than 200 µM and more than 200 µM.

For `CC(C)C(=O)CC(c1ccc(Cl)cc1)N1N=C(C(C)C)CC1c1ccc(Cl)cc1` (stereo not drawn), the outcome was inactive. In the case of `C=CCC1CCN(C=C)C1=O` (stereo not drawn), the EC50 is more than 1660 µM and the IC50 is 1580 µM. The matching figures for `COC(=O)c1oc(-c2ccccc2)c(-c2ccccc2)c1C(=O)OC`: more than 200 µM and 74.1 µM. The matching figures for `NC(CCCCNCc1ccccc1O)C(=O)O` (stereo not drawn): more than 178 µM and more than 178 µM. For `CNC(=O)N(C1=NCC(C)S1)c1ccc(C)c(C)c1` (stereo not drawn), the result was inactive. For the compound `CO[C@@H]1C2OC(C)(C)OC2O[C@@H]1C1OC[C@H]2O[C@@H](n3ccc(=O)[nH]c3=O)C(O)[C@H]2N1O` (stereo partly drawn), the EC50 was more than 200 µM and the IC50 turned out to be 148 µM.

With `COc1ccc(/C=C2/NC(=S)N=C2Cl)cc1`, the EC50 was more than 200 µM and the IC50 is more than 200 µM.

For the compound `CC(NNC(=O)CC(=O)N(C(=O)c1ccccc1)c1ccc(Cl)cc1)c1cc2ccccc2oc1=O` (stereo not drawn), the EC50 was more than 200 µM and the IC50 was more than 200 µM. Turning to `CS(=O)(=O)C(CC(S(C)(=O)=O)S(C)(=O)=O)S(C)(=O)=O`, the EC50 is more than 20.4 µM and the IC50 is more than 20.4 µM. Regarding `O=C(Nc1cc2c(oc1=O)CCCCCC2)c1ccccc1`, the EC50 is more than 200 µM and the IC50 is more than 200 µM. For the compound `CC(C)CC(F)(C(N)=O)C(N)=O`, the EC50 is more than 200 µM and the IC50 is more than 200 µM.

With `COC(=O)C1=C(O)C(C(=O)OC)[C@]2(O)[C@@H](C(=O)OC)[C@H]1C[C@@H](c1ccccc1)[C@@H]2C(=O)OC` (stereo partly drawn), the EC50 was more than 200 µM and the IC50 was determined as 18.6 µM. As to `Cc1ccc(-c2nn3c(-c4ccccc4)nnc3o2)cc1`, the EC50 was more than 200 µM and the IC50 was 132 µM. `O=C(O)C1(P(=O)(O)O)CC1`: the outcome was inactive. `CCOc1cnc([C@H]2CCC3[C@@H]4CC=C5C[C@@H](OC(=O)CCC(=O)O)CC[C@]5(C)C4CC[C@@]32C)s1` (stereo partly drawn): the EC50 is more than 50.1 µM and the IC50 worked out at 32.4 µM. The corresponding values for `CN(C)Cc1[nH]c(=O)[nH]c(=O)c1O` are more than 200 µM and 23.4 µM. `COc1ccc(NC(=O)/C(=N/NC(N)=S)C2C(=O)NC(=S)NC2=O)c(OC)c1`: the EC50 was more than 589 µM and the IC50 was more than 589 µM.

In the case of `C=CCN1CCC(C(=O)CC)(c2ccccc2)CC1`, the EC50 was more than 355 µM and the concentration for half-maximal inhibition (IC50) was 166 µM. `CC(=O)Nc1ccc(S(=O)(=O)NN(C)S(=O)(=O)c2ccc(C)cc2)cc1`: the EC50 is more than 18.2 µM and the IC50 was more than 18.2 µM. `Nc1cc(N)c(N=Nc2ccc(/C=C\c3ccc(N=Nc4c(N)cc(N)cc4C(=O)O)cc3S(=O)(=O)O)c(S(=O)(=O)O)c2)c(C(=O)O)c1.[Zn+2]`: the EC50 was more than 30.2 µM and the IC50 was 23.4 µM.

For `CC1=CC(=Nc2cccc3c(N=C4C=C(C)C(=O)O4)cccc23)OC1=O`, the EC50 was more than 200 µM and the IC50 amounted to 1.41 µM. On to `COC(=O)c1cc(Cl)ccc1NC(=O)c1ccc([N+](=O)[O-])cc1`, for which the result was inactive. Take `CN1Nc2ccccc2CC1=O`: the EC50 is more than 1550 µM and the IC50 was 55 µM.

As for `Cc1cc(=O)[nH]c(NNC(C#N)c2ccc(O)cc2)n1` (stereo not drawn), the EC50 was more than 182 µM and the IC50 was more than 182 µM.

Take `CCOC(=O)/C(=C/c1ccc([N+](=O)[O-])cc1)C(=O)c1ccccc1`: the EC50 was more than 22.4 µM and the IC50 came out at 13.5 µM. Regarding `Nc1cccc(S(=O)(=O)N(CC(=O)O)c2ccccc2)c1`, the result was inactive. Take `Cn1cc(NC(=O)c2cc(NC(=O)c3cc(NC(=O)/C=C/C(=O)O)cn3C)cn2C)cc1C(=O)NCCC(=N)N`: the EC50 is more than 100 µM and the IC50 was determined as 89.1 µM. The corresponding values for `CCC(O)(Cc1ccccc1)C(C(=O)O)c1ccccc1` (stereo not drawn) are more than 457 µM and 339 µM. As to `CC(C)(C)OC(=O)CC(NC(=O)OC(C)(C)C)C(=O)NC(Cc1ccccc1)C(N)=O` (stereo not drawn) (Boc-Asp(OtBu)-Phe-NH2; configuration not given here), the EC50 is 162 µM and the IC50 is more than 200 µM. Turning to `O=[N+]([O-])/C(Cl)=C(/C(Cl)=C(Cl)Cl)N1CCOCC1`, the EC50 is more than 200 µM and the IC50 stood at 8.71 µM.

For `NC(=O)N/N=C1\CCc2ccccc2C1`, the EC50 is more than 93.3 µM and the IC50 was more than 93.3 µM. Turning to `CC1(C)CCC(Sc2ccccc2)O1` (stereo not drawn), the result was inactive.

As for `COC(=O)CCC(=O)c1ccc2c(c1)CCC2`, the EC50 was more than 200 µM and the IC50 is more than 200 µM.

For `Cc1cccc[c]1[Sb](=[O])([OH])[OH]`, the outcome was active. Same read-out and setting: to `CC(=O)/C(=C(/Br)I)c1ccccc1` belongs “inactive”. As for `O=C1C(=O)c2ccccc2C(O)=C1CCCCCCCCC1CCCCC1`, the EC50 is more than 200 µM and the IC50 amounted to 12 µM.

As to `COC(=O)C(=O)C(C(=O)C(=O)Nc1ccc(OC)cc1[N+](=O)[O-])c1nc2ccc([N+](=O)[O-])cc2[nH]c1=O` (stereo not drawn), the EC50 was more than 182 µM and the IC50 is 170 µM. The matching figures for `CC1/C(=N/O)CC(c2ccccc2)N(N=O)C1c1ccccc1` (stereo not drawn): more than 200 µM and 129 µM.

Turning to `O=C1C=C(Nc2ccc(Cl)cc2Cl)C(=O)C=C1Nc1ccc(Cl)cc1Cl`, the EC50 was more than 200 µM and the IC50 was more than 200 µM.

In the case of `CC(C)(C)OC(=O)NC(CS(=O)(=O)O)C(=O)O` (stereo not drawn), the EC50 was more than 200 µM and the IC50 was more than 200 µM. Regarding `CCOc1ccccc1NC(=O)CCC(=O)NN`, the EC50 was more than 145 µM and the IC50 was more than 145 µM.

In the case of `O=C(/C=C/c1ccccc1)c1ccc(Cl)s1`, the EC50 is more than 200 µM and the half-inhibitory concentration (IC50) was found to be 12.3 µM. The matching figures for `O=C(CSc1nnc(Cc2ccccc2)o1)Nc1ccccc1Cl`: more than 138 µM and more than 138 µM. Consider `CCOC(=O)c1ncn(CCc2ccc(Cl)cc2)c1C`, for which the EC50 is more than 200 µM and the IC50 was more than 100 µM. The matching figures for `COc1cc(-c2nn3c(C)c(-c4ccccc4)nc3s2)cc(OC)c1OC`: 178 µM and more than 200 µM.

As for `O=C1c2ccccc2C(=O)[C@@]23O[C@@]12C1(Oc2cccc4cccc(c24)O1)[C@@H]1O[C@@H]1[C@@H]3O`, the EC50 was more than 20 µM and the IC50 was 1.15 µM. Turning to `C=C1CN(C2=NCCO2)C1`, the EC50 was more than 200 µM and the IC50 was more than 200 µM. On to `COC(=O)C1=C(O)C(C(=O)OC)[C@@]2(O)[C@@H](C(=O)OC)[C@H](C)C[C@@H]1[C@@H]2C(=O)OC` (stereo partly drawn), for which the EC50 is more than 200 µM and the IC50 was determined as 39.8 µM. The matching figures for `Nc1nc2c(ncn2C2C=CC(COS(N)(=O)=O)C2)c(=O)[nH]1` (stereo not drawn): more than 200 µM and more than 200 µM. The matching figures for `Cc1[nH]c(C)c2ccc(=O)ccc12`: more than 240 µM and 145 µM. Regarding `O=C(O)CCCCCCCCCCCCCCC(=O)O`, the EC50 is more than 18.2 µM and the IC50 is more than 18.2 µM. For `O=C(NC1CCCCC1)N1CCNC1=S`, the EC50 is more than 200 µM and the IC50 is more than 200 µM. As for `COC(=O)c1cc(C(=CCC2OCCO2)c2cc(Cl)c(OC)c(C(=O)OC)c2)cc(Cl)c1OC`, the EC50 is more than 52.5 µM and the IC50 was 38.9 µM. The corresponding values for `Cc1ccc2c(c1)C1(SC(C)C(=O)N1c1ccc(Br)cc1)C(=O)N2` (stereo not drawn) are more than 200 µM and 6.31 µM.

Regarding `c1ccc([P+](Cc2ccc(C[P+](c3ccccc3)(c3ccccc3)c3ccccc3)cc2)(c2ccccc2)c2ccccc2)cc1`, the EC50 is 17.4 µM and the IC50 was 38 µM.

On to `O=C1c2ccccc2C(=O)c2nc(-c3ccccc3)c(-c3ccccc3)nc21`, for which the outcome was inactive. Take `Cc1cccc(C)c1NC(=O)/C(Cc1nc2ccc([N+](=O)[O-])cc2[nH]c1=O)=N\NC(N)=O`: the EC50 is more than 417 µM and the IC50 was determined as 126 µM. The corresponding values for `O=C(CCCn1cnc([N+](=O)[O-])n1)NCCn1ccnc1[N+](=O)[O-]` are more than 200 µM and more than 200 µM. Consider `CN1CCCC(CNC2C3CC4CC(C3)CC2C4)C1` (stereo not drawn), for which the EC50 was more than 138 µM and the IC50 was more than 138 µM.

As for `Cc1ccnc(NC(NC(=O)c2ccccc2)(C(F)(F)F)C(F)(F)F)c1`, the outcome was inactive.

Consider `CCOC(=O)C(N=C(c1ccccc1)c1ccccc1)N(C(=O)OC(C)(C)C)C(=O)OC(C)(C)C` (stereo not drawn), for which the result was inactive. On to `CC(=O)Oc1cc(OC(C)=O)c2c(c1)OC(c1ccc(OC(C)=O)c(OC(C)=O)c1)CC2=O` (stereo not drawn), for which the EC50 is more than 57.5 µM and the IC50 is more than 57.5 µM. As for `CN1CC2=C(NC(=S)NC2c2ccccc2)/C(=C/c2ccccc2)C1` (stereo not drawn), the EC50 is 19.1 µM and the IC50 stood at 85.1 µM. Turning to `CN(C)c1nc(N(C)C)nc(N2C(=O)c3ccccc3C2=O)n1`, the EC50 is more than 100 µM and the IC50 was determined as 0.389 µM. Turning to `O=C(O)Cc1sc(=O)[nH]c1O`, the EC50 is more than 200 µM and the IC50 is more than 200 µM. As for `Cc1cccc([B-]23OCC[N+]2(CNC(=O)C2=C(O)C4(O)C(=O)C5=C(O)c6c(O)cccc6C(C)(O)C5CC4C(N(C)C)C2=O)CCO3)c1` (stereo not drawn), the EC50 is more than 38.9 µM and the IC50 was more than 38.9 µM. Turning to `O=c1sc(Nc2ccc3ccccc3c2Cl)nc2ccccc12`, the EC50 is more than 200 µM and the IC50 is more than 200 µM.
